Measurements published in US10633418B2, “Cross-linked peptides containing non-peptide cross-linked structure, method for synthesizing cross-linked peptides, and novel organic compound used in method” (JITSUBO Co., Ltd., priority 2011, dated 2020).
Numbered stars: 1 amine (or outer) side, 2 acyl side, 3 side chain; on linkers, the order of the positions; unused ones are H or OH. Bridge positions count the residues as written; N and C are the ends. Square brackets hold non-standard residues; d marks the D form. Peptide text beside a SMILES is read from it. Nle(6-ylidene) = O=C([C@H](CCCC=[*:3])N[*:1])[*:2]

Experiments:
carboxy peptidase = assay: Decomposition by carboxy peptidase (resistance to peptidase); assay type: in vitro ADME; conditions: carboxy peptidase (isolated enzyme, SIGMA); enzyme solution 1 U/ml in PBS, peptide 0.2 mg/ml, 37° C., HPLC; time at which half of the peptide was decomposed; read-out: half period by carboxy peptidase (t1/2) (converted)
Protocol: (§1) Resistance to a peptidase of a peptide of the present invention was investigated using a carboxy peptidase and chymotrypsin. Resistance to a peptidase was measured as described below.
(Decomposition by Carboxy Peptidase)
A carboxy peptidase purchased from SIGMA was treated with PBS to prepare an enzyme solution of 1 U/ml, which was then kept warm at 37° C. in a water bath. Then, a peptide solution having a concentration adjusted to 5 mg/ml with DMSO: pure water=1:1 mixed solvent was treated with PBS(−) to obtain a concentration of 1 mg/ml, and the enzyme solution and the peptide solution were mixed at 4:1 so as to give a peptide final concentration of 0.2 mg/ml. Thereafter, these were reacted quickly at 37° C. With time, the reaction solution was sampled each in an amount of 0.1 ml, and a reaction stopping solution (25% TFA in acetonitrile, 20 μL) was added to stop the reaction. Samples were analyzed by HPLC, and decomposition of a peptide by the peptidase was measured. […] Time at which half of the peptide added was decomposed was measured.

chymotrypsin = biological target: T1, chymotrypsin (Bos taurus, UniProt P00766); assay: Decomposition by chymotrypsin (resistance to peptidase); assay type: in vitro ADME; conditions: chymotrypsin (isolated enzyme, SIGMA), pH 8; enzyme solution 4 U/ml in 0.1M Tris-HCl (pH8.0), peptide 0.2 mg/ml, 37° C., HPLC; read-out: half period by chymotrypsin (t1/2)
T1 construct: purchased SIGMA
Protocol: as §1
(Decomposition by Chymotrypsin)
Chymotrypsin purchased from SIGMA was treated with 0.1M Tris-HCl (pH8.0) to prepare an enzyme solution of 4 U/ml, which was then kept warm at 37° C. in a water bath. Then, a peptide solution treated with DMSO: pure water=1:1 to obtain a concentration of 5 mg/ml was treated with 0.1M Tris-HCl (pH8.0) to give a concentration of 1 mg/ml, and the enzyme solution and the peptide solution were mixed at 4:1 so as to give a peptide final concentration of 0.2 mg/ml. Thereafter, these were reacted quickly at 37° C. With time, the reaction solution was sampled each in an amount of 0.1 ml, and a reaction stopping solution (25% TFA in acetonitrile, 20 μL) was added to stop the reaction. Samples were analyzed by HPLC, and decomposition of a peptide by chymotrypsin was measured. Sampling was conducted at 0, 0.5 minutes, 1 minute and 2 minutes, and when decomposition of 50% or more was not obtained at 2 minutes, sampling was conducted further at 0.5 hours, 1 hour, 3 hours, and time at which half of the peptide added was decomposed was measured.

Row | half-life at 0.2 mg/ml (carboxy peptidase) [h] | half-life at 0.2 mg/ml (chymotrypsin) [min] | SMILES
1 | 0.0495 | 0.97 | CC(=O)N1CCCC[C@@H](C(=O)N[C@@H](Cc2ccc(O)cc2)C(=O)O)NC(=O)[C@H](CC(C)C)NC(=O)[C@H](Cc2ccc(O)cc2)NC(=O)[C@H](CCC(N)=O)NC(=O)[C@H](CO)NC(=O)[C@H](Cc2c[nH]c3ccccc23)NC(=O)CN(C(=O)[C@@H](N)Cc2ccc(O)cc2)CCCC1 [Bdev-19]
2 | 79 | 2.07 | CC(C)C[C@@H]1NC(=O)[C@H](Cc2ccc(O)cc2)NC(=O)[C@H](CCC(N)=O)NC(=O)[C@H](CO)NC(=O)[C@H](Cc2c[nH]c3ccccc23)NC(=O)[C@@H](NC(=O)[C@@H](N)Cc2ccc(O)cc2)CCC/C=C\CCC[C@@H](C(=O)N[C@@H](Cc2ccc(O)cc2)C(=O)O)NC1=O [Comp. 3] (H-Y[Nle(6-ylidene)]WSQYL[Nle(6-ylidene)]Y-OH; staple (Z) 2-8)
